pIC50: −log10 of the molar value. Like-named read-outs stand apart in the source and are kept apart here.
Molecular target: TNFα (Homo sapiens, UniProt P01375)
Assay: TNFα Induced HEK Blue Cellular Assay
Assay type: cell-based
How it was run: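 IC50 fitted with a 4-parameter logistic model from % inhibition, normalised to DMSO controls with and without stimulation. Readout: QUANTI-Blue SEAP at 620 nm after 24 h, 37 °C exposure to TNFα (100 pg/ml final) and test compound at […]–0.5 nM final.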

[1] = HEK Blue TNFα reporter cells, TNFα 100 pg/ml, 24 hrs at 37° C., secreted alkaline phosphatase (QUANTI-Blue) read at 620 nm, read-out: IC50 value

Chain of TNFα (P01375 77-233 limits assumed): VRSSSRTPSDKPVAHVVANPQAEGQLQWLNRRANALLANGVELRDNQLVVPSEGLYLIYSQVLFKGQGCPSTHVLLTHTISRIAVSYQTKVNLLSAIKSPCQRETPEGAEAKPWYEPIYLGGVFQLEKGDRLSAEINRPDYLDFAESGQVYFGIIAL

| Structure (SMILES) | pIC50 [1] | pIC50 |
| --- | --- | --- |
| CN1C(=O)c2cccc(OC(F)F)c2[C@H]2C[C@@H]1c1nc3ccc(-c4cc(F)c(P(C)(C)=O)cc4F)cc3n12 [Example 56, (1R,11R)-18-(difluoromethoxy)-5-[4-(dimethylphosphoryl)-2,5-difluorophenyl]-12-methyl-2,9,12-triazapentacyclo[9.8.1.0^{2,10}.0^{3,8}.0^{14,19}]icosa-3(8),4,6,9,14(19),15,17-heptaen-13-one] | > 7.00 | – |
| [2H]C([2H])([2H])N1C(=O)c2cccc(OC(F)F)c2[C@H]2C[C@@H]1c1nc3ccc(-c4ccc(P(=O)(CC)CC)c(F)c4)cc3n12 [Example 125, (7R,14R)-11-(4-(diethylphosphoryl)-3-fluorophenyl)-1-(difluoromethoxy)-6-(methyl-d3)-6,7-dihydro-7,14-methanobenzo[f]benzo[4,5]imidazo[1,2-a][1,4]diazocin-5(14H)-one] | > 7.00 | – |
| CCN1C(=O)c2cccc(OC(F)F)c2[C@H]2C[C@@H]1c1nc3ccc(-c4ccc(OCP(C)(C)=O)cc4)cc3n12 [Example 44, (1R,11R)-18-(difluoromethoxy)-5-{4-[(dimethylphosphoryl)methoxy]phenyl}-12-ethyl-2,9,12-triazapentacyclo[9.8.1.0^{2,10}.0^{3,8}.0^{14,19}]icosa-3(8),4,6,9,14(19),15,17-heptaen-13-one] | > 7.00 | – |
| CN1C(=O)c2cccc(OC(F)F)c2[C@H]2C[C@@H]1c1nc3cc(F)c(-c4ccc(P(C)(C)=O)c(F)c4)cc3n12 [Example 57, (1R,11R)-18-(difluoromethoxy)-5-[4-(dimethylphosphoryl)-3-fluorophenyl]-6-fluoro-12-methyl-2,9,12-triazapentacyclo[9.8.1.0^{2,10}.0^{3,8}.0^{14,19}]icosa-3(8),4,6,9,14(19),15,17-heptaen-13-one] | > 7.00 | – |
| [2H]C([2H])([2H])N1C(=O)c2cccc(OCC)c2[C@H]2C[C@@H]1c1nc3ccc(-c4cc(F)c(P(C)(C)=O)cc4F)cc3n12 [Example 75, (7R,14R)-11-(4-(dimethylphosphoryl)-2,5-difluorophenyl)-1-ethoxy-6-(methyl-d3)-6,7-dihydro-7,14-methanobenzo[f]benzo[4,5]imidazo[1,2-a][1,4]diazocin-5(14H)-one] | > 7.00 | – |
| CP(C)(=O)c1ccc(-c2ccc3nc4n(c3c2)[C@@H]2C[C@H]4NC(=O)c3cccc(OC(F)F)c32)cc1F [Example 43, (1R,11R)-18-(difluoromethoxy)-5-[4-(dimethylphosphoryl)-3-fluorophenyl]-2,9,12-triazapentacyclo[9.8.1.0^{2,10}.0^{3,8}.0^{14,19}]icosa-3(8),4,6,9,14(19),15,17-heptaen-13-one] | > 7.00 | – |
| CN1C(=O)c2cccc(OC(F)F)c2[C@H]2C[C@@H]1c1nc3ccc(-c4ccc(OCCCP(C)(C)=O)nc4)cc3n12 [Example 40, (1R,11R)-18-(difluoromethoxy)-5-{6-[3-(dimethylphosphoryl)propoxy]pyridin-3-yl}-12-methyl-2,9,12-triazapentacyclo[9.8.1.0^{2,10}.0^{3,8}.0^{14,19}]icosa-3(8),4,6,9,14(19),15,17-heptaen-13-one] | 6.00 to 7.00 | – |
| [2H]C([2H])([2H])N1C(=O)c2cccc(OC(F)F)c2[C@H]2C[C@@H]1c1nc3ccc(-c4ccc(C(F)(F)P(C)(C)=O)cc4)cc3n12 [Example 95, (7R,14R)-1-(difluoromethoxy)-11-(4-((dimethylphosphoryl)difluoromethyl)phenyl)-6-(methyl-d3)-6,7-dihydro-7,14-methanobenzo[f]benzo[4,5]imidazo[1,2-a][1,4]diazocin-5(14H)-one] | > 7.00 | – |
| CP(C)(=O)Cc1ccc(-c2ccc3nc4n(c3c2)[C@@H]2C[C@H]4NC(=O)c3cccc(OC(F)F)c32)c(F)c1 [Example 96, (7R,14R)-1-(difluoromethoxy)-11-(4-((dimethylphosphoryl)methyl)-2-fluorophenyl)-6,7-dihydro-7,14-methanobenzo[f]benzo[4,5]imidazo[1,2-a][1,4]diazocin-5(14H)-one] | 6.00 to 7.00 | – |
| [2H]C([2H])([2H])N1C(=O)c2cccc(OC(F)F)c2[C@H]2C[C@@H]1c1nc3ccc(-c4ccc(CP(C)(C)=O)cc4F)cc3n12 [Example 67, (7R,14R)-1-(difluoromethoxy)-11-(4-((dimethylphosphoryl)methyl)-2-fluorophenyl)-6-(methyl-d3)-6,7-dihydro-7,14-methanobenzo[f]benzo[4,5]imidazo[1,2-a][1,4]diazocin-5(14H)-one] | > 7.00 | – |
| [2H]C([2H])([2H])N1C(=O)c2cccc(OC(F)F)c2[C@H]2C[C@@H]1c1nc3ccc(-c4ccc(CP(=O)(OC)OC)cc4)cc3n12 [Example 83, dimethyl (4-((7R,14R)-1-(difluoromethoxy)-6-(methyl-d3)-5-oxo-5,6,7,14-tetrahydro-7,14-methanobenzo[f]benzo[4,5]imidazo[1,2-a][1,4]diazocin-11-yl)benzyl)phosphonate] | – | > 7.00 |

Continued, in another order:

| pIC50 [1] | Structure (SMILES) | pIC50 |
| --- | --- | --- |
| > 7.00 | CN1C(=O)c2cccc(OC(F)F)c2[C@H]2C[C@@H]1c1nc3ccc(-c4cnc(P(C)(C)=O)c(F)c4)cc3n12 [Example 4, (7R,14R)-1-(difluoromethoxy)-11-(6-(dimethylphosphoryl)-5-fluoropyridin-3-yl)-6-methyl-6,7-dihydro-7,14-methanobenzo[f]benzo[4,5]imidazo[1,2-a][1,4]diazocin-5(14H)-one] | – |
| > 7.00 | [2H]C([2H])([2H])N1C(=O)c2cccc(OC(F)F)c2[C@H]2C[C@@H]1c1nc3ccc(-c4ccc(P(=O)(CC)CC)nc4)cc3n12 [Example 126, (7R,14R)-11-(6-(diethylphosphoryl)pyridin-3-yl)-1-(difluoromethoxy)-6-(methyl-d3)-6,7-dihydro-7,14-methanobenzo[f]benzo[4,5]imidazo[1,2-a][1,4]diazocin-5(14H)-one] | – |
| > 7.00 | [2H]C([2H])([2H])N1C(=O)c2cccc(OC(F)F)c2[C@H]2C[C@@H]1c1nc3ccc(-c4cc(F)c(P(C)(C)=O)c(C#N)c4)cc3n12 [Example 133, 5-((7R,14R)-1-(difluoromethoxy)-6-(methyl-d3)-5-oxo-5,6,7,14-tetrahydro-7,14-methanobenzo[f]benzo[4,5]imidazo[1,2-a][1,4]diazocin-11-yl)-2-(dimethylphosphoryl)-3-fluorobenzonitrile] | – |
| > 7.00 | Cc1cc(P(C)(C)=O)ccc1-c1ccc2nc3n(c2c1)[C@@H]1C[C@H]3N(C)C(=O)c2cccc(OC(F)F)c21 [Example 29, (1R,11R)-18-(difluoromethoxy)-5-[4-(dimethylphosphoryl)-2-methylphenyl]-12-methyl-2,9,12-triazapentacyclo[9.8.1.0^{2,10}.0^{3,8}.0^{14,19}]icosa-3(8),4,6,9,14(19),15,17-heptaen-13-one] | – |
| > 7.00 | CCP(=O)(CC)c1ccc(-c2ccc3nc4n(c3c2)[C@@H]2C[C@H]4NC(=O)c3cccc(OC(F)F)c32)cc1F [Example 51, (1R,11R)-5-[4-(diethylphosphoryl)-3-fluorophenyl]-18-(difluoromethoxy)-2,9,12-triazapentacyclo[9.8.1.0^{2,10}.0^{3,8}.0^{14,19}]icosa-3(8),4,6,9,14(19),15,17-heptaen-13-one] | – |
| > 7.00 | CN1C(=O)c2cccc(OC(F)F)c2[C@H]2C[C@@H]1c1nc3ccc(-c4ccc(CP(C)(C)=O)nc4)cc3n12 [Example 22, (1R,11R)-18-(difluoromethoxy)-5-{6-[(dimethylphosphoryl)methyl]pyridin-3-yl}-12-methyl-2,9,12-triazapentacyclo[9.8.1.0^{2,10}.0^{3,8}.0^{14,19}]icosa-3(8),4,6,9,14(19),15,17-heptaen-13-one] | – |
| 6.00 to 7.00 | CN1C(=O)c2cccc(OC(F)F)c2[C@H]2C[C@@H]1c1nc3ccc(-c4cnc(P(C)(C)=O)nc4)cc3n12 [Example 8, (1R,11R)-18-(difluoromethoxy)-5-[2-(dimethylphosphoryl)pyrimidin-5-yl]-12-methyl-2,9,12-triazapentacyclo[9.8.1.0^{2,10}.0^{3,8}.0^{14,19}]icosa-3(8),4,6,9,14(19),15,17-heptaen-13-one] | – |
| 6.00 to 7.00 | [2H]C([2H])([2H])N1C(=O)c2cccc(OC(F)F)c2[C@H]2C[C@@H]1c1nc3ccc(-c4ccc(P(C)(C)=O)c(Cl)n4)cc3n12 [Example 121, (7R,14R)-11-(6-chloro-5-(dimethylphosphoryl)pyridin-2-yl)-1-(difluoromethoxy)-6-(methyl-d3)-6,7-dihydro-7,14-methanobenzo[f]benzo[4,5]imidazo[1,2-a][1,4]diazocin-5(14H)-one] | – |
| > 7.00 | [2H]C([2H])([2H])N1C(=O)c2cccc(OC(F)F)c2[C@H]2C[C@@H]1c1nc3ccc(-c4cc(F)c(P(C)(C)=O)cc4OC)cc3n12 [Example 130, (7R,14R)-1-(difluoromethoxy)-11-(4-(dimethylphosphoryl)-5-fluoro-2-methoxyphenyl)-6-(methyl-d3)-6,7-dihydro-7,14-methanobenzo[f]benzo[4,5]imidazo[1,2-a][1,4]diazocin-5(14H)-one] | – |
| > 7.00 | [2H]C([2H])([2H])N1C(=O)c2cccc(OC(F)F)c2[C@H]2C[C@@H]1c1nc3ccc(-c4ccc([C@@H](C)P(C)(C)=O)c(F)c4C)cc3n12 (single isomer, unassigned) [Example 113, (7R,14R)-1-(difluoromethoxy)-11-(4-((R or S)-1-(dimethylphosphoryl)ethyl)-3-fluoro-2-methylphenyl)-6-(methyl-d3)-6,7-dihydro-7,14-methanobenzo[f]benzo[4,5]imidazo[1,2-a][1,4]diazocin-5(14H)-one] | – |
| > 7.00 | [2H]C([2H])([2H])N1C(=O)c2cccc(OC(F)F)c2[C@H]2C[C@@H]1c1nc3cc(F)c(-c4ccc(P(C)(C)=O)cc4F)cc3n12 [Example 61, (7R,14R)-1-(difluoromethoxy)-11-(4-(dimethylphosphoryl)-2-fluorophenyl)-10-fluoro-6-(methyl-d3)-6,7-dihydro-7,14-methanobenzo[f]benzo[4,5]imidazo[1,2-a][1,4]diazocin-5(14H)-one] | – |
